Entries after “also recorded” stand apart in the source; their conditions may differ.
Tests used:
[1] = system: HIF‐1α transcriptional activity; experiment: dual‐luciferase assay (HRE‐Firefly Luciferase / renilla) of HIF‐1α transcriptional activity in HEK293T cells; format: cell-based, human
How it was run: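 Stable HEK293T line carrying HRE-firefly luciferase, renilla and HIF-1α P402A/P564A mutant, giving HIF-1α expression under normoxia. Compounds incubated 24 h at 37 °C; firefly/renilla luciferase ratio read as HIF-1α transcriptional activity.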

ATP synthase = biological target: T1, ATP synthase (Bos taurus, UniProt P00829); experiment: MitoTox Complex V OXPHOS activity assay; format: biochemical; conditions: up to 50 µM
T1 construct: purchased Abcam ab109907
Protocol: The activity of complex V was determined using the MitoTox Complex V OXPHOS Activity Assay kit from Abcam (ab109907, Cambridge, MA, USA), according to the instructions. The activity of complex V was measured by monitoring the change in absorbance at 340 nm over a period of 2 h at 30 °C. Oligomycin (Selleck, […]) was used as a positive control for the assay.

[2] = system: HIF‐1α target genes (VEGF and PDK1) mRNA expression; experiment: quantitative RT‐PCR of HIF‐1α target genes; format: cell-based, human; conditions: listed as HI‐101
Protocol: Total RNA was isolated using Trizol reagent (Invitrogen). Complementary DNA was synthesized using a Reverse Transcriptase reagent (Promega). Fluorescence real‐time PCR was performed with the double‐stranded DNA dye SYBR Master Mix (Roche Diagnostics Corporation, Indianapolis, IN, USA) and the Applied Biosystems Step One Plus detection system (ABI 7900). The upstream and downstream gene‐specific primers were as follows. • HIF‐1α sense: 5′‐[…]‐3′, • HIF‐1α antisense: 5′‐[…]‐3′; • HIF‐1β sense: 5′‐[…]‐3′, • HIF‐1β antisense:5′‐[…]‐3′; • VEGF sense: 5′‐[…]‐3′, • VEGF antisense: 5′‐[…]‐3′; • PDK1 sense:5′‐[…]‐3′, • PDK1 antisense:5′‐GGAGGTCTCAACACGAGGT‐3′; • β‐actin sense: 5′‐[…]‐3′, • β‐actin antisense: 5′‐[…]‐3′; • ATP5D sense:5′‐ […]‐3′, • ATP5D antisense: 5′‐[…]‐3′; • ATP5E sense: 5′‐ […]‐3′, • ATP5E antisense:5′‐[…]‐3′; • ATP5F1 sense: 5′‐ […]‐3′, • ATP5F1 antisense:5′‐[…]‐3′.

HIF‐1α translation = experiment: polysome profile analysis; format: cell-based, human; conditions: HEK293T, 12 h with MG‐132, hypoxia
Protocol: Given that HI‐101 affected neither the transcription of HIF‐1α nor its degradation, we next tested whether HI‐101 regulated HIF‐1α translation. Polysome profile analysis is a commonly used method for studying translation process by separating polysomes and ribosomal subunits using a sucrose density gradient (SDG).^[ [53] ^] After treating with HI‐101 or DMSO for 12 h co‐incubated with MG‐132 under hypoxia condition, HEK293T cells were collected and polysome‐bound and polysome‐free mRNAs were isolated by using 10–50% sucrose gradient fractionation.
Polysome RNA preparations and analysis were carried out as previously described.^[ [60] ^] Briefly, cells were seeded in 10 cm dishes, and washed with cold PBS containing 100 µg mL^−1 cycloheximide, and then lysed in a hypotonic lysis buffer [5 mM tris‐HCl (pH 7.5), 2.5 mM MgCl2, 1.5 mM KCl, 100 µg mL^−1 cycloheximide, 2 mM DTT, 0.5% Triton X‐100, and 0.5% sodium deoxycholate]. A lysate sample was used to isolate the cytoplasmic RNA using TRIzol (Invitrogen). […] Gradients were fractionated, and the optical density at 260 nm was continuously detected by a UV detector and fraction collector (Teledyne ISCO). […] Fractions with mRNA associated with polysomes were pooled and HIF‐1α mRNA abundance was detected by RT‐PCR amplification in each fraction of the polysome gradient. […]

IC50 ([1]; Homo sapiens, HEK-293T, HEK293T dual‐luciferase, mean ± s.d. (n = 3)): 2000 ± 300 nM
SMILES: O=C(Nc1ccc(C23CC4CC(CC(C4)C2)C3)cc1)c1cccc(Cl)c1 [1‐3a, N‐(4‐((3r,5r,7r)‐Adamantan‐1‐yl)Phenyl)−3‐Chlorobenzamide]
inhibition at 10 µM ([1]; Homo sapiens, HEK-293T, 10 µM, incubation 24 h, HEK293T, mean ± s.d. (n = 3), read-out: Inhibition rate [%] @ 10 µM): 81.4 ± 0.9%
HIF‐1α transcriptional activity (luciferase), in words ([1]; hit confirmation): significantly inhibited HIF‐1α transcriptional activity
ATP synthase activity (ATP synthase): no effect on ATP synthase activity
HIF‐1α target genes mRNA expression [2]: significantly inhibited HIF‐1α transcriptional activity and the expressions of HIF‐1α target genes; also recorded: significantly decreased the mRNA expression of HIF‐1α target gene VEGF
HIF‐1α translation (HIF‐1α translation): efficiently inhibited HIF‐1α translation

— PMC10477886, “Adamantaniline Derivatives Target ATP5B to Inhibit Translation of Hypoxia Inducible Factor‐1α” (Advanced Science, 2023)
